The results in this text go back to ChEMBL document CHEMBL4219047, “Optimization of peptide-based polyagonists for treatment of diabetes and obesity” (Bioorg Med Chem, 2018).

Where only a bound is given, the exact number is not on record here.

For assay [1], the target named is T1, Glucagon receptor (Homo sapiens, UniProt P47871). The assay is described as follows: Agonist activity at human GCG receptor expressed in HEK293 cells assessed as increase in cAMP level after 5 hrs by CRE driven luciferase reporter gene assay. Format: functional, cell-based.
The target in assay [2] is T2, Gastric inhibitory polypeptide receptor (Homo sapiens, UniProt P48546).
T2 sequence (P48546 whole entry): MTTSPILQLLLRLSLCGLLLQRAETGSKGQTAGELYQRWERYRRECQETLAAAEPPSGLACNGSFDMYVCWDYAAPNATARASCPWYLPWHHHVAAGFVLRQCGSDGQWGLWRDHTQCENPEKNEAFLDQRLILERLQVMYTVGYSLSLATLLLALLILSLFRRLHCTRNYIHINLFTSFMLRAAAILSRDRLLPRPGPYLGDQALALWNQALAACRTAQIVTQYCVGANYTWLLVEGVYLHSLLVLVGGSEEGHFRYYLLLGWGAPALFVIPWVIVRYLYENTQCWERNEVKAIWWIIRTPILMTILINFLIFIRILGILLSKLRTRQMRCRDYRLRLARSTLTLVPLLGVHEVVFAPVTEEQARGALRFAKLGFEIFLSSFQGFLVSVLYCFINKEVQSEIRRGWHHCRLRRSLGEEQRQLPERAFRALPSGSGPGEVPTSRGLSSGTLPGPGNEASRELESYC
The assay is described as follows: Agonist activity at human GIP receptor expressed in HEK293 cells assessed as increase in cAMP level after 5 hrs by CRE driven luciferase reporter gene assay. It counts as functional, cell-based.

The target in assay [3] is T1, Glucagon receptor. The assay is described as follows: Agonist activity at human GCG receptor expressed in HEK293 cells assessed as increase in cAMP level after 5 hrs by CRE driven luciferase reporter gene assay relative to glucagon. Format: functional, cell-based.
The target in assay [4] is T3, Gastric inhibitory polypeptide receptor (Homo sapiens) (UniProt P48546).
T3 sequence (whole entry): T2 sequence (P48546 whole entry)
The assay is described as follows: Agonist activity at human GIP receptor expressed in HEK293 cells assessed as increase in cAMP level after 5 hrs by CRE driven luciferase reporter gene assay relative to GIP. It counts as functional, cell-based. Also on record: concentration or dose not given beside the values.

Assay [5] deals with T4, Glucagon-like peptide 1 receptor (Homo sapiens, UniProt P43220). The assay is described as follows: Agonist activity at human GLP1 receptor expressed in HEK293 cells assessed as increase in cAMP level after 5 hrs by CRE driven luciferase reporter gene assay. Format: functional, cell-based.
Assay [6] concerns the target T4, Glucagon-like peptide 1 receptor. Briefly: Agonist activity at human GLP1 receptor expressed in HEK293 cells assessed as increase in cAMP level after 5 hrs by CRE driven luciferase reporter gene assay relative to GLP1. Also on record: concentration or dose not given beside the values. It counts as functional, cell-based.
The target in assay [7] is T5, Glucagon-like peptide 1 receptor (Mus musculus, UniProt O35659).
T5 sequence (O35659 whole entry): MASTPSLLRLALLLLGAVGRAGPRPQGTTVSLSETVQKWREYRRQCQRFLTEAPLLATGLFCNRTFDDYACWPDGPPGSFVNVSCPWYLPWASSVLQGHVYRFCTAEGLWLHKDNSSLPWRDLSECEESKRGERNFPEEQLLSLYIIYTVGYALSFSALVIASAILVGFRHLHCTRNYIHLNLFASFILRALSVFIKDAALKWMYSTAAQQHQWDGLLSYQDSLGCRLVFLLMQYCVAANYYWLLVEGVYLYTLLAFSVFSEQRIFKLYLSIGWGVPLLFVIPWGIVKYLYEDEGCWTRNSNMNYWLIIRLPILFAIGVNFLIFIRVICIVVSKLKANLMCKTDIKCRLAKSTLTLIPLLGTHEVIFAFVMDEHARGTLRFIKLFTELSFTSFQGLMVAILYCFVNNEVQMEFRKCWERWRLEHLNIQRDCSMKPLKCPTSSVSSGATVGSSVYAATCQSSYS
Briefly: Agonist activity at mouse GLP1 receptor expressed in CHO cells assessed as increase in cAMP level by TR-FRET assay. It counts as functional, cell-based.

The target in assay [8] is T1, Glucagon receptor. The assay is described as follows: Agonist activity at human GCG receptor expressed in CHO cells assessed as increase in cAMP level by TR-FRET assay. It counts as functional, cell-based.
For assay [9], the target named is Glucagon receptor (Mus musculus, UniProt Q61606). Briefly: Agonist activity at mouse GCG receptor expressed in CHO cells assessed as increase in cAMP level by TR-FRET assay. It counts as functional, cell-based.
The target of assay [10] is T4, Glucagon-like peptide 1 receptor. Briefly: Agonist activity at human GLP1 receptor expressed in CHO cells assessed as increase in cAMP level by TR-FRET assay. Format: functional, cell-based.
The target in assay [11] is T1, Glucagon receptor. Briefly: Agonist activity at human GCG receptor expressed in CHO cells assessed as increase in cAMP level by TR-FRET assay relative to glucagon. Format: functional, cell-based.
The species entered for a further assay is Mus musculus. Briefly: Selectivity ratio of EC50 for mouse GLP1 receptor to EC50 for mouse GCG receptor.

T4 sequence (P43220 whole entry): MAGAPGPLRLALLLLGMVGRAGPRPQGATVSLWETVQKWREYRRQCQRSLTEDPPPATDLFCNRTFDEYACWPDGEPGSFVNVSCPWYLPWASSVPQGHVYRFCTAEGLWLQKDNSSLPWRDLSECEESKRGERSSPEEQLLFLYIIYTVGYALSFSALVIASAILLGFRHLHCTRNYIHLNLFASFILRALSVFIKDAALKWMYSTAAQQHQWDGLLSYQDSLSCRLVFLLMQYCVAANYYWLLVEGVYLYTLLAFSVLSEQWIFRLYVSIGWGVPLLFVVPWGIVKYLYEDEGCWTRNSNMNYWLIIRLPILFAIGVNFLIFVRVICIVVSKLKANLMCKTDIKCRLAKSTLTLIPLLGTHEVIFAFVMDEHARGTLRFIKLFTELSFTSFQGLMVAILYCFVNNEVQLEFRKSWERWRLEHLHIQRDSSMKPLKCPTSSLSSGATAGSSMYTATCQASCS
T1 sequence (P47871 whole entry): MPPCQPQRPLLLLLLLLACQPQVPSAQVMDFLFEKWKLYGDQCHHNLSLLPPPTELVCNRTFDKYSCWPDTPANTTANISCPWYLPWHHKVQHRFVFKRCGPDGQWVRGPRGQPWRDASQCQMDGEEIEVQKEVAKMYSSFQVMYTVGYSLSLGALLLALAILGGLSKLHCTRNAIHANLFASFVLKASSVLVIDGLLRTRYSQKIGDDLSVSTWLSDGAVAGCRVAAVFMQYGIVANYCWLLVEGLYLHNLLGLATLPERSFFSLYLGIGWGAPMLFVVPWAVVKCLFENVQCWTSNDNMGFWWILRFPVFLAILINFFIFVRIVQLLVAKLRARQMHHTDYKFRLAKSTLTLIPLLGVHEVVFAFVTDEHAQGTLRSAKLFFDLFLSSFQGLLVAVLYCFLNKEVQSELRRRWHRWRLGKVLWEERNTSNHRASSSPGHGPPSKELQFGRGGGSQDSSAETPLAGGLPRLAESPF
Chain of Glucagon receptor (Mus musculus, UniProt Q61606) (Q61606 whole entry): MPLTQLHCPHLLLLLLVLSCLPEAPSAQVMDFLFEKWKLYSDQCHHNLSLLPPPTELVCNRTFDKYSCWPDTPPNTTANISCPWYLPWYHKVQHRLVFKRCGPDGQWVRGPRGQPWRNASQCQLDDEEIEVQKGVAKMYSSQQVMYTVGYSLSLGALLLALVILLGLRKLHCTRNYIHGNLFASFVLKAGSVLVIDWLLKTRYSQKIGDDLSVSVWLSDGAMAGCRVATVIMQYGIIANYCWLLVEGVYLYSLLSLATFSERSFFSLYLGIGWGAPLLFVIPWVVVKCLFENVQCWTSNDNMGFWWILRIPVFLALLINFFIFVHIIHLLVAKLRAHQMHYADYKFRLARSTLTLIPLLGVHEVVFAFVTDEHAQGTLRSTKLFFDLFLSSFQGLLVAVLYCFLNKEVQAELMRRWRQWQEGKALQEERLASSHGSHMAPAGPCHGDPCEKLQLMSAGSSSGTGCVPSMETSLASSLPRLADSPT

As to `CCCCCCCCCCCCCCCC(=O)N[C@@H](CCC(=O)NCCCC[C@H](NC(=O)[C@H](CC(=O)O)NC(=O)[C@H](CO)NC(=O)[C@@H](NC(=O)[C@H](Cc1ccccc1)NC(=O)[C@@H](NC(=O)CNC(=O)[C@H](CCC(N)=O)NC(=O)[C@@H](CO)NC(=O)[C@@H](N)Cc1cnc[nH]1)[C@@H](C)O)[C@@H](C)O)C(=O)N[C@@H](CO)C(=O)N[C@@H](CCCCN)C(=O)N[C@@H](Cc1ccc(O)cc1)C(=O)N[C@@H](CC(C)C)C(=O)N[C@@H](CC(=O)O)C(=O)N[C@@H](CCC(=O)O)C(=O)N[C@@H](CCC(N)=O)C(=O)N[C@@H](C)C(=O)N[C@@H](C)C(=O)N[C@@H](CCCCN)C(=O)N[C@@H](CCC(=O)O)C(=O)N[C@@H](Cc1ccccc1)C(=O)N[C@H](C(=O)N[C@@H](C)C(=O)N[C@@H](Cc1c[nH]c2ccccc12)C(=O)N[C@@H](CC(C)C)C(=O)N[C@@H](CCSC)C(=O)N[C@@H](CC(N)=O)C(=O)N[C@H](C(N)=O)[C@@H](C)O)[C@@H](C)CC)C(=O)O`, the EC50 is 0.041 nM at Glucagon receptor [1], 2.69 nM in assay [2] and 0.039 nM in assay [5]. For the same compound, the Activity on Glucagon receptor [3] is 78%; in assay [4], 1%; in assay [6], 72%.

For the compound `CC[C@H](C)[C@H](NC(=O)[C@H](Cc1ccccc1)NC(=O)[C@H](CCC(=O)O)NC(=O)[C@H](CCCCN)NC(=O)[C@H](C)NC(=O)[C@H](C)NC(=O)[C@H](CCC(N)=O)NC(=O)CNC(=O)[C@H](CCC(=O)O)NC(=O)[C@H](CC(C)C)NC(=O)[C@H](Cc1ccc(O)cc1)NC(=O)[C@H](CCCCN)NC(=O)[C@H](CO)NC(=O)[C@@H](NC(=O)[C@H](CC(=O)O)NC(=O)[C@H](CO)NC(=O)[C@@H](NC(=O)[C@H](Cc1ccccc1)NC(=O)[C@@H](NC(=O)CNC(=O)[C@H](CCC(=O)O)NC(=O)[C@H](C)NC(=O)[C@@H](N)Cc1cnc[nH]1)[C@@H](C)O)[C@@H](C)O)C(C)C)C(=O)N[C@@H](C)C(=O)N[C@@H](Cc1c[nH]c2ccccc12)C(=O)N[C@@H](CC(C)C)C(=O)N[C@H](C(=O)N[C@@H](CCCCN)C(=O)NCC(=O)N[C@@H](CCCNC(=N)N)C(N)=O)C(C)C`, the EC50 in assay [7] is 0.03 nM; on Glucagon receptor [8], above 1000 nM; on Glucagon receptor [9] it was above 100 nM; in assay [10], 0.09 nM. For the same compound, at Glucagon receptor [11], the Activity was below 0.05%. Besides, the Ratio EC50 in the assay filed under Mus musculus was below 0.001.
